Values joined by “and” are separate entries in the source; they are usually repeats but may differ in a detail not shown here. Equal values may be shown once. Where a name gives a salt, the structure may show the parent alone.
What was measured:
Gram-positive bacteria = settings: cited from earlier work
[1] = in vivo; cited from earlier work
hERG channel = hERG channel (Homo sapiens, UniProt Q12809); settings: cited from earlier work
Pneumocystis jirovecii = assay: in vivo Pneumocystis pneumonia model, corticosteroid-treated rats; settings: 50 mg/kg/d oral, once a day for 10 days
Method: Compound solutions were prepared just before use.
The drugs were given once a day for 10 consecutive days. The final concentration of DMSO in diluted drug solutions was between 1.5 and 15%. Control animals were dosed with sterile water with 15% of DMSO. At the end of the experiment, therapeutic efficacy was assessed by counting P. jirovecii in lung homogenates and comparing the counts with those of the untreated controls. Twenty-four hours after the end of the treatment, animals were sacrificed and the lung homogenized in a Stomacher-400 blender as previously described (European Concerted Action on Pneumocystis Research. Parasitology Today 12: 245-9, 1996, the entire disclosure of which is herein incorporated by reference). Parasite quantitation was performed on air-dried smears stained with toluidine blue 0 (cystic forms) or RAL-555 stains (vegetative, precystic and cystic forms).

S. aureus 101 [2] = assay: MIC determination; type: cell-based, Staphylococcus aureus; settings: Staphylococcus aureus, 101, 18 h; read-out: Minimum inhibitory concentrations (MIC)
Procedure, shortened: (§1)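 Broth microdilution MICs: H. influenzae in HTM (Mueller-Hinton broth, yeast extract, NAD, hematin), M. catarrhalis in Brain Heart Infusion, others in cation-adjusted Mueller-Hinton broth.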

S. pneumoniae 1/1 [3] = assay: MIC determination; type: cell-based, Streptococcus pneumoniae; settings: Streptococcus pneumoniae; S. pneumoniae 1/1; 18 hours at 37° C., 5% CO2; read-out: Minimum inhibitory concentrations (MIC)
[4] = system: Haemophilus influenzae ATCC 49766; assay: MIC determination; type: cell-based; settings: Haemophilus influenzae, ATCC49766, 18 h, read-out: Minimum inhibitory concentrations (MIC)
Procedure, shortened: as §1

[5] = system: Klebsiella pneumoniae ATCC 33495; assay: MIC determination; type: cell-based; settings: Klebsiella pneumoniae, ATCC33495; K. pneumonia 33495; 18 hours at 37° C.; read-out: Minimum inhibitory concentrations (MIC)
Procedure, shortened: as §1

[6] = system: Moraxella catarrhalis RA 21; assay: MIC determination; type: cell-based; settings: Moraxella catarrhalis, RA21; M. catarrhalis RA 21; 18 hours at 37° C., 5% CO2; read-out: Minimum inhibitory concentrations (MIC)
Procedure, shortened: as §1

[7] = system: Staphylococcus aureus ATCC 25923; assay: MIC determination; type: cell-based; settings: Staphylococcus aureus, ATCC25923; S. aureus 25923; 18 hours at 37° C.; read-out: Minimum inhibitory concentrations (MIC)
Procedure, shortened: as §1

[8] = system: Streptococcus pneumoniae ATCC 49619; assay: MIC determination; type: cell-based; settings: Streptococcus pneumoniae, ATCC49619; S. pneumoniae 49619; 18 hours at 37° C., 5% CO2; read-out: Minimum inhibitory concentrations (MIC)
[9] = system: Haemophilus influenzae ATCC 49766; assay: checkerboard synergy assay with iclaprim; type: cell-based; settings: antibiotic in combination with iclaprim; H. influenzae 49766
[10] = system: Klebsiella pneumoniae ATCC 33495; assay: checkerboard synergy assay with iclaprim; type: cell-based; settings: antibiotic in combination with iclaprim; K. pneumoniae 33495
[11] = system: Moraxella catarrhalis RA 21; assay: checkerboard synergy assay with iclaprim; type: cell-based; settings: antibiotic in combination with iclaprim; M. catarrhalis RA 21
[12] = system: Staphylococcus aureus ATCC 25923; assay: checkerboard synergy assay with iclaprim; type: cell-based; settings: antibiotic in combination with iclaprim; S. aureus 25923
[13] = system: Streptococcus pneumoniae ATCC 49619; assay: checkerboard synergy assay with iclaprim; type: cell-based; settings: antibiotic in combination with iclaprim; S. pneumoniae 49619
S. aureus 101 [14] = assay: checkerboard synergy assay with iclaprim; type: cell-based, Staphylococcus aureus; settings: antibiotic in combination with iclaprim
S. pneumoniae 1/1 [15] = assay: checkerboard synergy assay with iclaprim; type: cell-based, Streptococcus pneumoniae; settings: antibiotic in combination with iclaprim
[16] = in vivo; cited from earlier work; remark: listed apart in the source
[17] = system: Staphylococcus aureus, Streptococcus pneumoniae, Haemophilus influenzae, Moraxella catarrhalis and Klebsiella pneumoniae; assay: checkerboard synergy assay with iclaprim, strains pooled; type: cell-based
Method: The synergistic potential of iclaprim against Gram-positive and Gram-negative bacteria was determined using the checkerboard assay as described in Eliopoulos GM and Moellering, Jr. RC (1991), Antimicrobial combinations, pp. 432-492, in V. Lorian (ed.), Antibiotics in laboratory medicine, 3rd Ed., The Williams & Wilkins Co., Baltimore, the entire disclosure of which is herein incorporated by reference, allowing multiple test concentrations of iclaprim to be assayed in the presence of various concentrations of the other antibiotic in microtiter plates. The same growth media and conditions were used as described in 3.2 below.
Two different dilutions were used for iclaprim depending on the MIC determined for the bacterium. […] Iclaprim and the other antibiotic being tested were also dispensed alone in the last row and in the last column, respectively, as controls.
The Fractional Inhibitory Concentrations (FIC) for each added agent were calculated and used to determine the sum of FIC (ΣFIC) indicative of the synergistic potential of a given combination as described in Veyssier P. (1999), Inhibiteurs de la dihydrofolate reductase, nitrohétérocycles (furanes) et 8-hydroxyquinoleines, pp. 995-1027, in A. Bryskier (ed.), Antibiotiques agents antibatériens et antifongiques, 1st Ed., Ellipses Edition Marketing SA, Paris, the entire disclosure of which is herein incorporated by reference. Synergy was defined whereby the ΣFIC was <0.5, indifference (no synergy nor antagonism) whereby ΣFIC was ≥0.5 but ≤4, and antagonism whereby ΣFIC was >4. Additivity as a special form of indifference was defined whereby the ΣFIC was ≥0.5 but <1, for example as described in Stevens, D L et al. (1998), In vitro antimicrobial effects of various combinations of penicillin and clindamycin against four strains of Streptococcus pyogenes, J. Antimicrob. Chemother. 42: 1266-1268, the entire disclosure of which is herein incorporated by reference.

[18] = water at 20° C.; cited from earlier work
[19] = cited from earlier work
[20] = 1% solution in water; cited from earlier work
[21] = rat lung, single rat, listed as TMP, 50 mg/kg/day
[22] = single rat, listed as TMP, 50 mg/kg/day

hERG channel, sequence (Q12809 whole entry): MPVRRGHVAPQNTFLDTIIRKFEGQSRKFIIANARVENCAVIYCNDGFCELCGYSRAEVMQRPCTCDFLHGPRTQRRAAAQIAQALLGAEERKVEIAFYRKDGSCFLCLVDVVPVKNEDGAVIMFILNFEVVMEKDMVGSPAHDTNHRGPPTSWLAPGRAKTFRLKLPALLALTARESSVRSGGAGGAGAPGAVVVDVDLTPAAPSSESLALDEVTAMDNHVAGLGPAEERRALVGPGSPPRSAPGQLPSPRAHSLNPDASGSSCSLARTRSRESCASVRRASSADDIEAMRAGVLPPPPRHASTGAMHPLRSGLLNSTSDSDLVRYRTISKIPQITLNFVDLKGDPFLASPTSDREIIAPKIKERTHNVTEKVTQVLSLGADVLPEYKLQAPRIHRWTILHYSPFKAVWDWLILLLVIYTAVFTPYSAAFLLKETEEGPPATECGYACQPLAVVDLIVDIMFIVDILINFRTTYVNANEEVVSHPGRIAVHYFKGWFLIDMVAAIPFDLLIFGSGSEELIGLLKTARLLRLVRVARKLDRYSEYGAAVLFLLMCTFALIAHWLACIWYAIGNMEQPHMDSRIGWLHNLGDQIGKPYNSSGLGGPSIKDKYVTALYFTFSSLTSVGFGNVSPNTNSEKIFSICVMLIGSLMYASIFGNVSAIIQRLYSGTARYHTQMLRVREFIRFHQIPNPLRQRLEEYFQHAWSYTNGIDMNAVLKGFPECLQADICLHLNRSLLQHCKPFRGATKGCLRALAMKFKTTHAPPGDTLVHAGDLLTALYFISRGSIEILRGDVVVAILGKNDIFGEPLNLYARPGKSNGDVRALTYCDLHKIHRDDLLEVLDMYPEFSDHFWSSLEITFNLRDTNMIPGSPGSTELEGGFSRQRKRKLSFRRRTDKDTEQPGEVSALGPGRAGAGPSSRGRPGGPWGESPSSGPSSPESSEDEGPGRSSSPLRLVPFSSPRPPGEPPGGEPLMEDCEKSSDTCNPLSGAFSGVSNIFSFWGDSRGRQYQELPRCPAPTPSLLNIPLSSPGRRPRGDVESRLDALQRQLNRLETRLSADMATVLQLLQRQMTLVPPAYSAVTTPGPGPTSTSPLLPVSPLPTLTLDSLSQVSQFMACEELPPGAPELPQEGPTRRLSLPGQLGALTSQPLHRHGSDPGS

| SMILES | MIC (S. aureus 101 [2]) [µg/mL] | MIC (S. pneumoniae 1/1 [3]) [µg/mL] | MIC [4] [µg/mL] | MIC [5] [µg/mL] | MIC [6] [µg/mL] | MIC [7] [µg/mL] | MIC [8] [µg/mL] | Con (Conclusion) [9] | Σ FIC [9] | Con (Conclusion) [10] | Σ FIC [10] | Con (Conclusion) [11] | Σ FIC [11] | Σ FIC [12] | Σ FIC [13] | Σ FIC (S. aureus 101 [14]) | Σ FIC (S. pneumoniae 1/1 [15]) | other results |
| --- | --- | --- | --- | --- | --- | --- | --- | --- | --- | --- | --- | --- | --- | --- | --- | --- | --- | --- |
| COc1cc(Cc2cnc(N)nc2N)c2c(c1OC)O[C@H](C1CC1)C=C2 [R-enantiomer, 5-[(2R)-2-cyclopropyl-7,8-dimethoxy-2Hchromen-5-ylmethyl] pyrimidine-2,4-diamine] |  |  |  |  |  |  |  |  |  |  |  |  |  |  |  |  |  | minimum inhibitory concentration (MIC) compared with the S-enantiomer (Gram-positive bacteria): lower minimum inhibitory concentration (MIC) than the S-enantiomer; pharmacokinetic parameters compared with the S-enantiomer [1]: more favorable pharmacokinetic parameters; hERG channel activity compared with the S-enantiomer (hERG channel): reduced hERG channel activity |
| COc1cc(Cc2cnc(N)nc2N)cc(OC)c1OC [Trimethoprim] | > 128 | 128 | 0.5 | 8 | 64 | 1 | 8 | Ind (Indifference (Ind)) | 1.00-1.25 | Ind (Indifference (Ind)) | 1.13-1.50 | Ad (Additivity (Ad)) | 0.75-1.13 | 1.00-1.25 | 1.00-1.25 | 1.01-1.50 | 0.56-1.03 | Mean % + SD (inhibition of cysts, TBO) (Pneumocystis jirovecii; group mean): 64.2 ± 30.7%; Mean % + SD (inhibition of total parasites, Giemsa) (Pneumocystis jirovecii; group mean): 78.7 ± 22.6%; Total cysts (TBO) (Pneumocystis jirovecii; [21]): 7.16.10^+7 and 9.36.10^+6 and 1.60.10^+8 and 1.32.10^+7; Total parasites (Giemsa) (Pneumocystis jirovecii; [21]): 1.06.10^+9 and 5.81.10^+7 and 6.76.10^+8 and 6.38.10^+7; % of inhibition vs Control (total parasites, Giemsa) (Pneumocystis jirovecii; [22]): 51.3% and 97.3% and 69.0% and 97.1%; % of inhibition vs control (cysts, TBO) (Pneumocystis jirovecii; [22]): 40.6% and 92.2% and 34.9% and 89.0%; t½ (plasma half-life) [16]: about 10.1 hours |
| Nc1ccc(S(=O)(=O)Nc2ncccn2)cc1 [Sulfadiazine] | > 128 | > 128 | > 128 | > 128 | > 128 | > 128 | > 128 | Syn (Synergy (Syn)) | 0.16-0.53 | Syn (Synergy (Syn)) | 0.27-1.50 | Syn (Synergy (Syn)) | 0.09-0.50 | 0.06-0.53 | 0.13-0.53 | 0.75-1.13 | 0.28-0.56 | synergistic potential with iclaprim ([17]; checkerboard experiments, all strains): highly synergistic; ΣFIC, range over strains ([17]; in combination with iclaprim, all the strains tested): 0.06-1.50 |
| COc1cc(Cc2cnc(N)nc2N)c2c(c1OC)OC(C1CC1)C=C2 (stereo not shown) [iclaprim mesylate] |  |  |  |  |  |  |  |  |  |  |  |  |  |  |  |  |  | solubility in water [18]: approximately 10 mg/mL; pKa [19]: 7.2; pH value [20]: 4.2 |

Reference: patent US20200038399A1, “FORMULATIONS, METHODS, KIT, AND DOSAGE FORMS FOR TREATING BACTERIAL INFECTION” (Motif BioSciences Inc., priority 2016, published 2020)
